Measurements reported in patent publication US7537765B2, “Inhibition of HIV-1 replication by disruption of the processing of the viral capsid-spacer peptide 1 protein” (priority 2003, dated 2009).
“Also recorded” adds a separate entry of the source.

Assays:
[1] = system: PHA-stimulated PBMC; test: Toxicity in PHA-stimulated PBMC, XTT method; format: cell-based; conditions: 7 days
Method: Toxicity of DSB was analyzed by incubating with PHA-stimulated PBMC for 7 days at a range of concentrations, then determining cell viability using the XTT method. The 50% cytotoxic concentration was >30 μM, corresponding to an in vitro therapeutic index of approximately 5000.

[2] = biological target: HIV-1 protease (Human immunodeficiency virus type 1 group M subtype B, UniProt P12497); format: biochemical; conditions: recombinant Gag, 50 μg/mL
[3] = system: HIV-2ROD; test: Gag processing (western blot) in chronically infected H9/HIV-2ROD cells; format: cell-based
Method: (§1) FIG. 2. […] Gag proteins were visualized using HIV-Ig (HIV-1) or monkey anti-SIVmac251 serum (HIV-2 and SIV; NIH AIDS Research and Reference Reagent Program).
(§2) In order to better define DSB's mechanism of action, a detailed examination was undertaken of the virus produced from HIV-1-infected cell lines treated with DSB. Briefly, H9 cells chronically infected with the HIV-1IIIB isolate were treated with DSB at 1 μg/mL for a period of 48 hrs. Indinavir was used as a control. At the 48 hr time-point, spent media was removed and fresh media containing compound was added. At 24, 48 and 72 hrs post fresh compound addition, both cells and supernatant were recovered for analysis. The level of virus in the culture supernatant was determined and western blots were used to characterize viral protein production in both cell-associated and cell-free virus. […] This defect took the form of an additional band in the western blots corresponding to p25 (FIG. 2). This p25 band results from the incomplete processing of the capsid CA-SP1 precursor. […] As discussed above, mutations at the p25 to p24 cleavage site that prevent processing are associated with defects in viral maturation and infectivity (Wiegers K. et al., J. Virol. 72:2846-54 (1998)).

[4] = system: SIVmac251; test: Gag processing (western blot) in chronically infected H9/SIVmac251 cells; format: cell-based, SIV
Method: as §1, §2

[5] = system: HIV-1 infectious molecular clone pNL4-3; test: EM analysis of HeLa cells transfected with pNL4-3; format: cell-based; conditions: DSB-treated samples
Text: FIG. 3. EM analysis of DSB-treated HIV-1 infected cells. […] Virions generated in the presence of DSB are characterized by an absence of conical, mature cores. In these samples the cores are uniformly spherical and often acentric. Secondly, many virions display an electron dense layer inside the lipid bilayer but outside the core (indicated with arrows in the DSB-treated sample panels).
HeLa cells were transfected with HIV-1 infectious molecular clone pNL4-3 and treated as described previously with DSB. Following treatment, DSB-treated infected cells were fixed in glutaraldehyde and analyzed by EM.

[6] = system: DSB-resistant HIV-1 viruses; test: Western blot of CA-SP1 cleavage in drug-resistant viruses; format: cell-based; conditions: drug-resistant viruses in the presence of DSB
Method: To determine if the resistant viruses were able to escape the CA-SP1 cleavage defect caused by DSB in wild-type virus, stocks of each virus grown in either the presence or absence of drug were analyzed by Western blot. Virus was pelleted through a 20% sucrose cushion from filtered culture supernatants that were collected 60 hr post-infection and 18 hr after the cells had been washed and fresh drug added. The viruses were lysed, and the amount of each virus was normalized by quantitating p24 levels in each sample.

For C=C(C)[C@@H]1CC[C@]2(C(=O)O)CC[C@]3(C)[C@H](CC[C@@H]4[C@@]5(C)CC[C@H](OC(=O)CC(C)(C)C(=O)O)C(C)(C)[C@@H]5CC[C@]43C)[C@@H]12 [DSB, 3-O-(3′,3′-dimethylsuccinyl)betulinic acid], the 50% cytotoxic concentration [1] was greater than 30 µM, the “effect on protease-mediated Gag protein processing” value [2] was “did not disrupt protease-mediated Gag protein processing; also recorded: does not disrupt the activity of HIV-1 protease” and the antiviral activity ([3]; HIV-2) was “lack of antiviral activity”. The Gag processing ([3]; HIV-2 chronically infected cell line, 1 μg/mL) was “normal Gag processing”, the antiviral activity ([4]; SIV) was “lack of antiviral activity” and the Gag processing ([4]; SIV chronically infected cell line, 1 μg/mL) was “normal Gag processing”. The “virion morphology by EM” value [5] was “no mature viral particles were observed” and the “CA-SP1 product in virus (Western blot)” value [6] was “did not contain the CA-SP1 product”.
